Reference: patent publication US20250011304A1, “CRYSTALLINE FORM OF N-(2-CHLORO-3-((5-CHLORO-3-METHYL-4-OXO-3,4-DIHYDROQUINAZOLIN-6-YL)AMINO)-4-FLUOROPHENYL)-3-FLUOROAZETIDINE-1-SULFONAMIDE” (Array BioPharma Inc., priority 2021, published 2025)
Entries after “also recorded” stand apart in the source; their conditions may differ.

Columns and labels:
[1] = molecular target: T1, full-length FLAG-tagged B-Raf(V600E) (Homo sapiens, UniProt P15056, V600E); experiment: BRAF V600E enzyme assay (TR-FRET competitive tracer displacement); format: binding; settings: 60 min, ambient temperature
T1 construct: 5 nM full-length, N-terminally FLAG-tagged B-Raf(V600E) (Origene Technologies, TP700031); purchased Origene Technologies TP700031
Description: A competitive displacement assay was configured for B-Raf that monitors the amount of a fluorescently-tagged “tracer” bound to B-Raf via TR-FRET from an anti-tag Eu-labeled antibody also bound to B-Raf. For full-length FLAG-tagged B-Raf(V600E), the assay mixtures consisted of 25 mM K^+HEPES, pH 7.4, 10 mM MgCl2, 0.01% Triton X-100, 1 mM DTT, 2% DMSO (from compound), 50 nM Tracer 1710 (ThermoFisher, PR9176A), 0.5 nM Eu anti-FLAG (M2)-cryptate Ab (Cisbio, 61FG2KLB) and 5 nM full-length, N-terminally FLAG-tagged B-Raf(V600E) (Origene Technologies, TP700031. N-(2-chloro-3-((5-chloro-3-methyl-4-oxo-3,4-dihydroquinazolin-6-yl)amino)-4-fluorophenyl)-3-fluoroazetidine-1-sulfonamide was diluted in DMSO across an 11-point dosing range created using a 3-fold serial dilution protocol at a top dose of 10 μM. The assay was run in 384-well, polystyrene, low-volume, non-treated, white microtiter plates (Costar 4512) in a final volume of 12 μL. Low control wells included 1 μM of a potent B-Raf inhibitor as a control. The assays were incubated at ambient temperature (typically 22° C.) for 60 min and then read on a PerkinElmer EnVision microplate reader using standard TRF settings (λEx=320 nm, λEm=615 & 665 nm). The ratioed counts (665 nm/615 nm) were converted to percent of control (POC) using the following equation:
[formula] • where: • xmax Average Uninhibited Controls • Xmin Average Background […]

MDR1 (P-gp) = molecular target: T2, MDR1 (P-gp) (Homo sapiens, UniProt P08183); experiment: MDR1 LLC-PK1 permeability assay (efflux); format: in vitro ADME; settings: statement in background
T2 construct: expressed in transfected cells; host or cells: LLC-PK1
Source text: (§1) Final organic concentration in the assay was 1%.
(§2) The efflux ratios for N-(2-chloro-3-((5-chloro-3-methyl-4-oxo-3,4-dihydroquinazolin-6-yl)amino)-4-fluorophenyl)-3-fluoroazetidine-1-sulfonamide (Compound 1) when tested in this assay were 2.1 (MDR1) and 4.2 (BCRP).

BCRP [2] = molecular target: T3, BCRP (Homo sapiens, UniProt Q9UNQ0); experiment: BCRP MDCKII permeability assay (efflux); format: in vitro ADME; settings: statement in background
T3 construct: expressed in transfected cells; host or cells: MDCKII
T3 sequence (Q9UNQ0 1-655): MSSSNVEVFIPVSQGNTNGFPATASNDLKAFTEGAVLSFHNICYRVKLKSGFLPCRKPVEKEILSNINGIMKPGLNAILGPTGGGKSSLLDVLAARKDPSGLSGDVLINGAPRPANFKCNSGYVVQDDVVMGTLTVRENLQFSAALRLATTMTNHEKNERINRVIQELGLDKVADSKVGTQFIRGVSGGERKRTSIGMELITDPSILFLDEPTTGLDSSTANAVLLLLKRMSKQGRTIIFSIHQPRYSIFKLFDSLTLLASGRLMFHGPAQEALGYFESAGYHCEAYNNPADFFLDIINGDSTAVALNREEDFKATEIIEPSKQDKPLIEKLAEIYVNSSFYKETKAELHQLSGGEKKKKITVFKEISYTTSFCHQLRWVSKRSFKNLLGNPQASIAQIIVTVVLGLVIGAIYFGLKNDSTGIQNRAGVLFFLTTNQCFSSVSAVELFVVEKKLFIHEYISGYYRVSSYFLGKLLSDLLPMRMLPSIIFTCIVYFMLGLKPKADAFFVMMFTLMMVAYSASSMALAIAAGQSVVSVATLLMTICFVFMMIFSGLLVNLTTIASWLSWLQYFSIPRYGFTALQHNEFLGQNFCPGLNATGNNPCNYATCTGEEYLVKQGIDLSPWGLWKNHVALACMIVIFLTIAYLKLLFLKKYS
Source text: as §1, §2

[3] = PK (free brain-to-free plasma ratio) (mouse); format: in vivo; settings: male CD-1 mice, oral gavage 10 mg/kg, (B/P)*(Bfu/Pfu)
Description: The ability of N-(2-chloro-3-((5-chloro-3-methyl-4-oxo-3,4-dihydroquinazolin-6-yl)amino)-4-fluorophenyl)-3-fluoroazetidine-1-sulfonamide (Compound 1) to penetrate the BBB in mice was determined by evaluating the unbound brain-to-unbound plasma (also referred to as free brain-to-free plasma) concentration ratio in male CD-1 mice.
Brain compound levels were generated from oral mouse PK dosing with typical sampling times of 2, 4, 8, 12 and 24 hours post oral gavage dosing at 10 mg/kg. Brain samples were stored at −20±5° C. prior to analysis. Concentrations of Compound 1 in mouse brain homogenate were determined by liquid chromatography tandem mass spectrometry (LC-MS/MS) following protein precipitation with acetonitrile. A 12-point calibration curve, ranging from 0.5 to 10,000 ng/mL, was prepared in duplicate. […]
Brain-to-plasma ratios were calculated using the concentration of Compound 1 measured in the brain divided by the concentration of compound measured in the plasma. […] Free brain-to-free plasma ratios were calculated by multiplying the brain-to-plasma ratio by the in vitro brain homogenate free fraction divided by the in vitro plasma free fraction using the following equation: (B/P)*(Bfu/Pfu). […]

BCRP [4] = molecular target: T4, BCRP (Mus musculus, UniProt Q7TMS5); settings: reported by Mittapalli et al.; cited from earlier work
T4 sequence (Q7TMS5 1-657): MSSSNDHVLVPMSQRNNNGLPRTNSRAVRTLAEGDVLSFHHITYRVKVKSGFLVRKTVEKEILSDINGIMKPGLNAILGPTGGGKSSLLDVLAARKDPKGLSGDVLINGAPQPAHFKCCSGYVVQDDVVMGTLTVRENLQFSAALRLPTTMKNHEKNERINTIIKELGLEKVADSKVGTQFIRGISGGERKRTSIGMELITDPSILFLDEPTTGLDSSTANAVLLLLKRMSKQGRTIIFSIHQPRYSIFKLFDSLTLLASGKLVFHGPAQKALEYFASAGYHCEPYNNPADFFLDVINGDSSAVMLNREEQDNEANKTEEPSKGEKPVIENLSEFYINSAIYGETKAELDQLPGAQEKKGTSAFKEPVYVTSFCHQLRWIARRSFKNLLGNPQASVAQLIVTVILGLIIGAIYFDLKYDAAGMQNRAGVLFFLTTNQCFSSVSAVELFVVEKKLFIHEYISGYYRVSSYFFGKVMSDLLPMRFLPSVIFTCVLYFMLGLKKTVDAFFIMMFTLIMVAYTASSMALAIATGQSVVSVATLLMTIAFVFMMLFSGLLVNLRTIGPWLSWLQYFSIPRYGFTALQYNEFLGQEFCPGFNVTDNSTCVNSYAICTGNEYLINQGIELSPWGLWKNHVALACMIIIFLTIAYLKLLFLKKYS

[5] = Physical stability analysis by PXRD; format: physicochemical; settings: for physical stability under accelerated stability conditions: 70° C./75% relative humidity (RH) for 8 days
Description: Powder X-ray Diffraction (PXRD) method for characteristic peak determination Powder X-ray diffraction analysis was conducted using a Bruker AXS D8 Endeavor diffractometer equipped with a Copper (Cu) radiation source. The divergence slit was set at 15 mm continuous illumination. Diffracted radiation was detected by a PSD-Lynx Eye detector, with the detector PSD opening set at 2.99 degrees. The X-ray tube voltage and amperage were set to 40 kV and 40 mA respectively. Data was collected in the Theta-Theta goniometer at the Cu wavelength (CuKα=[…]) from 3.0 to 40.0 degrees 2-Theta using a step size of 0.01 degrees and a step time of 1.0 second. The antiscatter screen was set to a fixed distance of 3.0 mm. Samples were rotated at 15/min during collection. Samples were prepared by placing them in a silicon low background sample holder and rotated during collection. Data were collected using Bruker DIFFRAC Plus software and analysis was performed by EVA diffract plus software. The PXRD data file was not processed prior to peak searching. Using the peak search algorithm in the EVA software, peaks selected with a threshold value of 1 were used to make preliminary peak assignments. To ensure validity, adjustments were manually made; the output of automated assignments was visually checked, and peak positions were adjusted to the peak maximum. Peaks with relative intensity of >3% were generally chosen. Typically, the peaks which were not resolved or were consistent with noise were not selected. A typical error associated with the peak position from PXRD stated in USP up to +/−0.2° 2-Theta (USP-941).
Table 5 details the differences between Form 1 and amorphous form.

[6] = Hygroscopicity (DVS water sorption and desorption); format: physicochemical; settings: for Hygroscopicity: DVS 0-90% RH; for Mass Gain at 25° C. and 60% RH / Mass Gain at 25° C. and 90% RH: DVS; for PXRD Post-DVS: solid form of powder remaining after DVS analysis
Description: Water sorption and desorption were analyzed with a DVS-Resolution. The microbalance was calibrated with a 100 mg standard weight on a monthly basis. About 8 mg of the compound was added to a sample pan and placed inside chamber A of the DVS-Resolution. Percent relative humidity was held at 0% for 1 hour, and increased to 90% in 10% increments, then ramped back to 0% in 10% increments. […] The powder material remaining following the DVS analysis was analyzed by PXRD to determine if a change in the diffraction pattern is observed.

T1 sequence (P15056 whole entry V600E): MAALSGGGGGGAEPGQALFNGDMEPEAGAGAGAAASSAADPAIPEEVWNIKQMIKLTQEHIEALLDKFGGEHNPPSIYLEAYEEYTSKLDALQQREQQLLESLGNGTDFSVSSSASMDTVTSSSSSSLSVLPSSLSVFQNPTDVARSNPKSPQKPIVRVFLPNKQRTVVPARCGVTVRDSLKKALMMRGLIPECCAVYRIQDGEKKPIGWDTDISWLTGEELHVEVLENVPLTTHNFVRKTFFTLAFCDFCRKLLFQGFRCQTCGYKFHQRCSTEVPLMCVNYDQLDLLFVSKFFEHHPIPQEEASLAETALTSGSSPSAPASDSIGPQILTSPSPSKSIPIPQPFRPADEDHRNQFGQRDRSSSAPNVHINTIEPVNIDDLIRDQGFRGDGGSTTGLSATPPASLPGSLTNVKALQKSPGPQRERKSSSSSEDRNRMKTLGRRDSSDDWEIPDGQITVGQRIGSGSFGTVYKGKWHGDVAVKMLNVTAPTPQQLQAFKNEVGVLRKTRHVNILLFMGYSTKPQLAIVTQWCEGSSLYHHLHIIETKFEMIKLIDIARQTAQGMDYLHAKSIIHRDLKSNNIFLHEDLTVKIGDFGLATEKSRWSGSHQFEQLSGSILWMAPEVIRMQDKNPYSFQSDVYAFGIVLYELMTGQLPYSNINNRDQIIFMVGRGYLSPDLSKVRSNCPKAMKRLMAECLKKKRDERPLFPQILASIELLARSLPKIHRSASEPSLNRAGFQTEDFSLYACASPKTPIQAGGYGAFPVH
T2 sequence (P08183 whole entry, species assumed): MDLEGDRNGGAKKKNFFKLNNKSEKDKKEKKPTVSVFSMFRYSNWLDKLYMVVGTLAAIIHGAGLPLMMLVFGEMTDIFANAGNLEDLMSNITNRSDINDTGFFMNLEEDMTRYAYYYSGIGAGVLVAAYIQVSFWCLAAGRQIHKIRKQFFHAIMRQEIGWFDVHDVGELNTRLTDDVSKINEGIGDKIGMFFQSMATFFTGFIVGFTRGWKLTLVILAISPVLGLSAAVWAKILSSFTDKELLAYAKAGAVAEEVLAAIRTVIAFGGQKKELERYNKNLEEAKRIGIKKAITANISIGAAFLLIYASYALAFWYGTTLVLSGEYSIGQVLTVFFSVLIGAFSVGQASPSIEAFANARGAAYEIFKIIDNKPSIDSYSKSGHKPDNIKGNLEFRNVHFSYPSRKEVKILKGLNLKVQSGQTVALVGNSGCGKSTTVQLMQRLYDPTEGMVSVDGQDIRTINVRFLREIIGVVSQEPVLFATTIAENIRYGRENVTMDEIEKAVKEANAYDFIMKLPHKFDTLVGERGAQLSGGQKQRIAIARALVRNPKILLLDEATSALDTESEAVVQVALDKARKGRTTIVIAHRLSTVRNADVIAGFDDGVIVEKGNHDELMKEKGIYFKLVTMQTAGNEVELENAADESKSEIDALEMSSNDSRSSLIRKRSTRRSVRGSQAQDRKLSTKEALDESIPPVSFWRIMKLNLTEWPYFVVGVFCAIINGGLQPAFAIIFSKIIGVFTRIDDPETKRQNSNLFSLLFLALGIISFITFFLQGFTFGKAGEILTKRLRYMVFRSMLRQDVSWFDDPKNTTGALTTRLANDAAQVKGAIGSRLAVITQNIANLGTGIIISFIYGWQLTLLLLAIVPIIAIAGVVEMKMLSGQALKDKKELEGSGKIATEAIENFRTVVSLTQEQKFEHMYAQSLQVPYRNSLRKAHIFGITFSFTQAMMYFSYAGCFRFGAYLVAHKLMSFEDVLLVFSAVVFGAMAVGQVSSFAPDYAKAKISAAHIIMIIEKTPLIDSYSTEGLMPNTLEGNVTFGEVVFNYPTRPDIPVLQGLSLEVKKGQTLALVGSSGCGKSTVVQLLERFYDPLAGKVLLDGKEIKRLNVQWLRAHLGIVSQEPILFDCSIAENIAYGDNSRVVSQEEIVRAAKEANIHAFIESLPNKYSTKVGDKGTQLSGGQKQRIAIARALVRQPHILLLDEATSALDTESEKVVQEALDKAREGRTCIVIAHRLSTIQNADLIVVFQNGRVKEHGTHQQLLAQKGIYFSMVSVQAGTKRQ

Compound | BCRP efflux ratio (BCRP [4]) | physical stability under accelerated stability conditions [5] | Solid form identified by PXRD after 8 days ([5]; stored at 5° C.) | Solid form identified by PXRD after 8 days ([5]; stored at 70° C./75% RH) | Hygroscopicity [6] | Mass Gain at 25° C. and 90% RH [6] | other results
Cn1cnc2ccc(Nc3c(F)ccc(NS(=O)(=O)N4CC(F)C4)c3Cl)c(Cl)c2c1=O [Compound 1, N-(2-chloro-3-((5-chloro-3-methyl-4-oxo-3,4-dihydroquinazolin-6-yl)amino)-4-fluorophenyl)-3-fluoroazetidine-1-sulfonamide] | – | – | – | – | – | – | IC50 [1]: 3 nM; substrate of active transporter P-glycoproteins (P-gp) (MDR1 (P-gp)): not a substrate; substrate of active transporter breast cancer resistance protein (BCRP) (BCRP [2]): not a substrate; Kp,uu (unbound brain-to-unbound plasma ratio) [3]: 0.12 to 0.17
CC(C)(C)c1nc(-c2cccc(NS(=O)(=O)c3c(F)cccc3F)c2F)c(-c2ccnc(N)n2)s1 [dabrafenib] | 21.0 | – | – | – | – | – | –
CCCS(=O)(=O)Nc1ccc(F)c(C(=O)c2c[nH]c3ncc(-c4ccc(Cl)cc4)cc23)c1F [vemurafenib] | 495 | – | – | – | – | – | –
Cn1cnc2ccc(Nc3c(F)ccc(NS(=O)(=O)N4CC(F)C4)c3Cl)c(Cl)c2c1=O [crystalline anhydrous Compound 1, Form 1, crystalline anhydrous N-(2-chloro-3-((5-chloro-3-methyl-4-oxo-3,4-dihydroquinazolin-6-yl)amino)-4-fluorophenyl)-3-fluoroazetidine-1-sulfonamide, Form 1] | – | stable | crystalline anhydrous | crystalline anhydrous | not hygroscopic; also recorded: Non-Hygroscopic | 0.0% | Mass Gain at 25° C. and 60% RH [6]: 0.0%; PXRD Post-DVS [6]: crystalline anhydrous
Cn1cnc2ccc(Nc3c(F)ccc(NS(=O)(=O)N4CC(F)C4)c3Cl)c(Cl)c2c1=O [amorphous Compound 1, Form 2, amorphous N-(2-chloro-3-((5-chloro-3-methyl-4-oxo-3,4-dihydroquinazolin-6-yl)amino)-4-fluorophenyl)-3-fluoroazetidine-1-sulfonamide, Form 2] | – | crystallized to crystalline anhydrous Compound 1, Form 1 | amorphous compound 1, | crystalline anhydrous | hygroscopic | approximately 3.6% | Hygroscopicity ([6]; Form 2): Hygroscopic; Mass Gain at 25° C. and 60% RH ([6]; Form 2): 1.7%; Mass Gain at 25° C. and 90% RH ([6]; Form 2): 3.6%; PXRD Post-DVS ([6]; Form 2): amorphous Compound
